# Key:
# Test in all cases: relative viability (nuclei count vs DMSO), 5 days (fraction); higher = more cells survive
# Bleomycin + Foretinib = compound: CC1=C(N=C(N=C1N)[C@H](CC(=O)N)NC[C@@H](C(=O)N)N)C(=O)N[C@@H]([C@H](C2=CN=CN2)OC3C(C(C(C(O3)CO)O)O)OC4C(C(C(C(O4)CO)O)OC(=O)N)O)C(=O)N[C@H](C)[C@H]([C@H](C)C(=O)N[C@@H]([C@@H](C)O)C(=O)NCCC5=NC(=CS5)C6=NC(=CS6)C(=O)NCCC[S+](C)C)O [Bleomycin] + COc1cc2c(Oc3ccc(NC(=O)C4(C(=O)Nc5ccc(F)cc5)CC4)cc3F)ccnc2cc1OCCCN1CCOCC1 [Foretinib] (partner 0.25 µM); conditions: main component drawn
# Procedure, shortened: (§1)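 Lung cancer cell lines, seeded in 1536-well plates, were treated the following day by pin tool with a single drug or with five library-drug doses (not always all listed) in √10 steps on top of a fixed anchor-drug dose. Cells were fixed and nuclei stained in one step after 5 days, and nuclei were counted. Relative viability is the nuclei count for treated wells divided by that for vehicle wells, reported as medians of duplicate plates.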
# Bleomycin + Crizotinib = compound: CC1=C(N=C(N=C1N)[C@H](CC(=O)N)NC[C@@H](C(=O)N)N)C(=O)N[C@@H]([C@H](C2=CN=CN2)OC3C(C(C(C(O3)CO)O)O)OC4C(C(C(C(O4)CO)O)OC(=O)N)O)C(=O)N[C@H](C)[C@H]([C@H](C)C(=O)N[C@@H]([C@@H](C)O)C(=O)NCCC5=NC(=CS5)C6=NC(=CS6)C(=O)NCCC[S+](C)C)O [Bleomycin] + C[C@@H](Oc1cc(-c2cnn(C3CCNCC3)c2)cnc1N)c1c(Cl)ccc(F)c1Cl [Crizotinib] (partner 1 µM); conditions: main component drawn
# Procedure, shortened: as §1
# Bleomycin + Linsitinib = compound: CC1=C(N=C(N=C1N)[C@H](CC(=O)N)NC[C@@H](C(=O)N)N)C(=O)N[C@@H]([C@H](C2=CN=CN2)OC3C(C(C(C(O3)CO)O)O)OC4C(C(C(C(O4)CO)O)OC(=O)N)O)C(=O)N[C@H](C)[C@H]([C@H](C)C(=O)N[C@@H]([C@@H](C)O)C(=O)NCCC5=NC(=CS5)C6=NC(=CS6)C(=O)NCCC[S+](C)C)O [Bleomycin] + C[C@]1(O)C[C@@H](c2nc(-c3ccc4ccc(-c5ccccc5)nc4c3)c3c(N)nccn32)C1 [Linsitinib] (partner 1 µM); conditions: main component drawn
# Procedure, shortened: as §1
# Etoposide + Pictilisib = compound: COc1cc([C@@H]2c3cc4c(cc3[C@@H](O[C@@H]3O[C@@H]5CO[C@@H](C)O[C@H]5[C@H](O)[C@H]3O)[C@H]3COC(=O)[C@H]23)OCO4)cc(OC)c1O [Etoposide] + CS(=O)(=O)N1CCN(Cc2cc3nc(-c4cccc5[nH]ncc45)nc(N4CCOCC4)c3s2)CC1 [Pictilisib] (partner 1 µM)
# Procedure, shortened: as §1
cell line,measurement,setting,value
NCI-H2009,relative viability,Bleomycin + Foretinib; first compound 0.01 µM,0.775
same,relative viability,Bleomycin + Foretinib; first compound 0.03162 µM,1.29
same,relative viability,Bleomycin + Foretinib; first compound 0.1 µM,1.25
same,relative viability,Bleomycin + Foretinib; first compound 0.3162 µM,0.969
same,relative viability,Bleomycin + Foretinib; first compound 1 µM,0.639
same,relative viability,Bleomycin + Crizotinib; first compound 0.01 µM,0.976
same,relative viability,Bleomycin + Crizotinib; first compound 0.03162 µM,1.07
same,relative viability,Bleomycin + Crizotinib; first compound 0.1 µM,0.991
same,relative viability,Bleomycin + Crizotinib; first compound 0.3162 µM,0.603
same,relative viability,Bleomycin + Crizotinib; first compound 1 µM,0.459
same,relative viability,Bleomycin + Linsitinib; first compound 0.01 µM,1.12
same,relative viability,Bleomycin + Linsitinib; first compound 0.03162 µM,1.22
same,relative viability,Bleomycin + Linsitinib; first compound 0.1 µM,1.17
same,relative viability,Bleomycin + Linsitinib; first compound 0.3162 µM,0.864
same,relative viability,Bleomycin + Linsitinib; first compound 1 µM,0.58
same,relative viability,Etoposide + Pictilisib; first compound 0.01 µM,0.693
same,relative viability,Etoposide + Pictilisib; first compound 0.03162 µM,0.898
same,relative viability,Etoposide + Pictilisib; first compound 0.1 µM,0.54
same,relative viability,Etoposide + Pictilisib; first compound 0.3162 µM,0.543
same,relative viability,Etoposide + Pictilisib; first compound 1 µM,0.236
NCI-H3122,relative viability,Bleomycin + Foretinib; first compound 0.01 µM,0.956
same,relative viability,Bleomycin + Foretinib; first compound 0.03162 µM,0.99
same,relative viability,Bleomycin + Foretinib; first compound 0.1 µM,0.914
same,relative viability,Bleomycin + Foretinib; first compound 0.3162 µM,0.483
same,relative viability,Bleomycin + Foretinib; first compound 1 µM,0.357
same,relative viability,Bleomycin + Crizotinib; first compound 0.01 µM,0.253
same,relative viability,Bleomycin + Crizotinib; first compound 0.03162 µM,0.271
same,relative viability,Bleomycin + Crizotinib; first compound 0.1 µM,0.305
same,relative viability,Bleomycin + Crizotinib; first compound 0.3162 µM,0.214
same,relative viability,Bleomycin + Crizotinib; first compound 1 µM,0.253
same,relative viability,Bleomycin + Linsitinib; first compound 0.01 µM,1.05
same,relative viability,Bleomycin + Linsitinib; first compound 0.03162 µM,1.03
same,relative viability,Bleomycin + Linsitinib; first compound 0.1 µM,1.01
same,relative viability,Bleomycin + Linsitinib; first compound 0.3162 µM,0.744
same,relative viability,Bleomycin + Linsitinib; first compound 1 µM,0.457
same,relative viability,Etoposide + Pictilisib; first compound 0.01 µM,0.687
same,relative viability,Etoposide + Pictilisib; first compound 0.03162 µM,0.74
same,relative viability,Etoposide + Pictilisib; first compound 0.1 µM,0.387
same,relative viability,Etoposide + Pictilisib; first compound 0.3162 µM,0.576
same,relative viability,Etoposide + Pictilisib; first compound 1 µM,0.349
NCI-H1755,relative viability,Bleomycin + Foretinib; first compound 0.01 µM,0.838
same,relative viability,Bleomycin + Foretinib; first compound 0.03162 µM,0.976
same,relative viability,Bleomycin + Foretinib; first compound 0.1 µM,0.948
same,relative viability,Bleomycin + Foretinib; first compound 0.3162 µM,0.638
same,relative viability,Bleomycin + Foretinib; first compound 1 µM,0.592
same,relative viability,Bleomycin + Crizotinib; first compound 0.01 µM,0.771
same,relative viability,Bleomycin + Crizotinib; first compound 0.03162 µM,0.841
same,relative viability,Bleomycin + Crizotinib; first compound 0.1 µM,0.827
same,relative viability,Bleomycin + Crizotinib; first compound 0.3162 µM,0.593
same,relative viability,Bleomycin + Crizotinib; first compound 1 µM,0.567
same,relative viability,Bleomycin + Linsitinib; first compound 0.01 µM,0.97
same,relative viability,Bleomycin + Linsitinib; first compound 0.03162 µM,0.992
same,relative viability,Bleomycin + Linsitinib; first compound 0.1 µM,0.981
same,relative viability,Bleomycin + Linsitinib; first compound 0.3162 µM,0.767
same,relative viability,Bleomycin + Linsitinib; first compound 1 µM,0.618
same,relative viability,Etoposide + Pictilisib; first compound 0.01 µM,0.434
same,relative viability,Etoposide + Pictilisib; first compound 0.03162 µM,0.473
same,relative viability,Etoposide + Pictilisib; first compound 0.1 µM,0.316
same,relative viability,Etoposide + Pictilisib; first compound 0.3162 µM,0.426
same,relative viability,Etoposide + Pictilisib; first compound 1 µM,0.269
HCC-78,relative viability,Bleomycin + Foretinib; first compound 0.01 µM,0.533
same,relative viability,Bleomycin + Foretinib; first compound 0.03162 µM,0.519
same,relative viability,Bleomycin + Foretinib; first compound 0.1 µM,0.534
same,relative viability,Bleomycin + Foretinib; first compound 0.3162 µM,0.399
same,relative viability,Bleomycin + Foretinib; first compound 1 µM,0.507
same,relative viability,Bleomycin + Crizotinib; first compound 0.01 µM,0.31
same,relative viability,Bleomycin + Crizotinib; first compound 0.03162 µM,0.294
same,relative viability,Bleomycin + Crizotinib; first compound 0.1 µM,0.297
same,relative viability,Bleomycin + Crizotinib; first compound 0.3162 µM,0.229
same,relative viability,Bleomycin + Crizotinib; first compound 1 µM,0.267
same,relative viability,Bleomycin + Linsitinib; first compound 0.01 µM,0.488
same,relative viability,Bleomycin + Linsitinib; first compound 0.03162 µM,0.343
same,relative viability,Bleomycin + Linsitinib; first compound 0.1 µM,0.343
same,relative viability,Bleomycin + Linsitinib; first compound 0.3162 µM,0.282
same,relative viability,Bleomycin + Linsitinib; first compound 1 µM,0.179
same,relative viability,Etoposide + Pictilisib; first compound 0.01 µM,0.218
same,relative viability,Etoposide + Pictilisib; first compound 0.03162 µM,0.202
same,relative viability,Etoposide + Pictilisib; first compound 0.1 µM,0.144
same,relative viability,Etoposide + Pictilisib; first compound 0.3162 µM,0.188
same,relative viability,Etoposide + Pictilisib; first compound 1 µM,0.15
LOU-NH91,relative viability,Bleomycin + Foretinib; first compound 0.01 µM,0.781
same,relative viability,Bleomycin + Foretinib; first compound 0.03162 µM,0.663
same,relative viability,Bleomycin + Foretinib; first compound 0.1 µM,0.649
same,relative viability,Bleomycin + Foretinib; first compound 0.3162 µM,0.4
same,relative viability,Bleomycin + Foretinib; first compound 1 µM,0.309
same,relative viability,Bleomycin + Crizotinib; first compound 0.01 µM,0.593
same,relative viability,Bleomycin + Crizotinib; first compound 0.03162 µM,0.537
same,relative viability,Bleomycin + Crizotinib; first compound 0.1 µM,0.531
same,relative viability,Bleomycin + Crizotinib; first compound 0.3162 µM,0.39
same,relative viability,Bleomycin + Crizotinib; first compound 1 µM,0.331
same,relative viability,Bleomycin + Linsitinib; first compound 0.01 µM,0.78
same,relative viability,Bleomycin + Linsitinib; first compound 0.03162 µM,0.611
same,relative viability,Bleomycin + Linsitinib; first compound 0.1 µM,0.522
same,relative viability,Bleomycin + Linsitinib; first compound 0.3162 µM,0.37
same,relative viability,Bleomycin + Linsitinib; first compound 1 µM,0.317
same,relative viability,Etoposide + Pictilisib; first compound 0.01 µM,0.55
same,relative viability,Etoposide + Pictilisib; first compound 0.03162 µM,0.566
same,relative viability,Etoposide + Pictilisib; first compound 0.1 µM,0.474
same,relative viability,Etoposide + Pictilisib; first compound 0.3162 µM,0.473
same,relative viability,Etoposide + Pictilisib; first compound 1 µM,0.399
IA-LM,relative viability,Bleomycin + Foretinib; first compound 0.01 µM,1.09
same,relative viability,Bleomycin + Foretinib; first compound 0.03162 µM,0.96
same,relative viability,Bleomycin + Foretinib; first compound 0.1 µM,0.899
same,relative viability,Bleomycin + Foretinib; first compound 0.3162 µM,0.56
same,relative viability,Bleomycin + Foretinib; first compound 1 µM,0.241
same,relative viability,Bleomycin + Crizotinib; first compound 0.01 µM,0.502
same,relative viability,Bleomycin + Crizotinib; first compound 0.03162 µM,0.64
same,relative viability,Bleomycin + Crizotinib; first compound 0.1 µM,0.476
same,relative viability,Bleomycin + Crizotinib; first compound 0.3162 µM,0.523
same,relative viability,Bleomycin + Crizotinib; first compound 1 µM,0.29
same,relative viability,Bleomycin + Linsitinib; first compound 0.01 µM,0.588
same,relative viability,Bleomycin + Linsitinib; first compound 0.03162 µM,0.476
same,relative viability,Bleomycin + Linsitinib; first compound 0.1 µM,0.344
same,relative viability,Bleomycin + Linsitinib; first compound 0.3162 µM,0.293
same,relative viability,Bleomycin + Linsitinib; first compound 1 µM,0.246
same,relative viability,Etoposide + Pictilisib; first compound 0.01 µM,0.398
same,relative viability,Etoposide + Pictilisib; first compound 0.03162 µM,0.31
same,relative viability,Etoposide + Pictilisib; first compound 0.1 µM,0.236
same,relative viability,Etoposide + Pictilisib; first compound 0.3162 µM,0.282
same,relative viability,Etoposide + Pictilisib; first compound 1 µM,0.138
NCI-H322M,relative viability,Bleomycin + Foretinib; first compound 0.01 µM,0.79
same,relative viability,Bleomycin + Foretinib; first compound 0.03162 µM,0.951
same,relative viability,Bleomycin + Foretinib; first compound 0.1 µM,0.865
same,relative viability,Bleomycin + Foretinib; first compound 0.3162 µM,0.563
same,relative viability,Bleomycin + Foretinib; first compound 1 µM,0.401
same,relative viability,Bleomycin + Crizotinib; first compound 0.01 µM,0.701
same,relative viability,Bleomycin + Crizotinib; first compound 0.03162 µM,0.852
same,relative viability,Bleomycin + Crizotinib; first compound 0.1 µM,0.908
same,relative viability,Bleomycin + Crizotinib; first compound 0.3162 µM,0.958
same,relative viability,Bleomycin + Crizotinib; first compound 1 µM,0.527
same,relative viability,Bleomycin + Linsitinib; first compound 0.01 µM,0.961
same,relative viability,Bleomycin + Linsitinib; first compound 0.03162 µM,1.01
same,relative viability,Bleomycin + Linsitinib; first compound 0.1 µM,0.95
same,relative viability,Bleomycin + Linsitinib; first compound 0.3162 µM,1.1
same,relative viability,Bleomycin + Linsitinib; first compound 1 µM,0.684
same,relative viability,Etoposide + Pictilisib; first compound 0.01 µM,0.504
same,relative viability,Etoposide + Pictilisib; first compound 0.03162 µM,0.566
same,relative viability,Etoposide + Pictilisib; first compound 0.1 µM,0.397
same,relative viability,Etoposide + Pictilisib; first compound 0.3162 µM,0.493
same,relative viability,Etoposide + Pictilisib; first compound 1 µM,0.384

# Source: the supplement of paper PMC10307832
